{
  "source": "patent US20240192237A1",
  "about": "(curantis UG, priority 2021, published 2024)",
  "tested_on": "patients with schizophrenia",
  "test": "PANSS assessment in clinical trials CBD-CT1 and CBD-PT",
  "format": "in vivo",
  "settings": "for PANSS Positive Score: baseline 22.9 ± 4.3; for PANSS Negative Score: baseline 22.5 ± 6.0; for PANSS General Score: baseline 45.0 ± 8.2; for PANSS Total Score: baseline 90.4 ± 14.1",
  "from_the_text": "The Ethics Committee of the Faculty of Medicine of University of Cologne approved the clinical trial with application number 00-074 on Aug. 6, 2000.\nAll randomized patients complied with all inclusion and exclusion criteria: age between 18 and 50, male and female, persisting inpatient hospitalization, specific DSM-IV diagnoses, initial Brief Psychiatric Rating Scale (BPRS) score≥36, understanding of the study objectives and the course of the study, legal capacity, no pregnancy or lactation phase, reliable contraception.\nCBD was administered as an oral dose in a capsule formulation. The dose was increased during the first week from 200 mg/d to 800 mg/d (4×200 mg) and remained at this level for the rest of the study period. Due to serious unwanted effects, the dose could be reduced irreversibly to 600 mg/d starting with day 15. […] Dose applications, blood sampling, and assessment of PANSS followed the time schedule presented below. Additional treatment with 7.5 mg lorazepam per day during the whole study period was permitted.\nOn 28 Jul. 2005 this clinical trial with application number 04-153 was approved by the Ethics Committee of the Faculty of Medicine of University of Cologne.\nEighteen patients with a diagnosis of schizophrenia or schizophreniform disorder should be included in this trial per protocol. Because dropouts had to be replaced by a new patient a total number of 29 patients was randomized from February 2006 to June 2008. All randomized patients complied with all inclusion and exclusion criteria: age between 18 and 65, male and female, specific DSM-IV diagnoses, initial BPRS score≥36, no pregnancy or lactation phase, reliable contraception, no lack of accountability, no other relevant interferences, no treatment with depot-antipsychotics during the last three months, no severe internal or neurological illness, no QTc prolongation, no acute suicidality nor endangerment of others by the patient. […] Treatment lasted four weeks: the first period with two weeks of CBD or placebo treatment was followed by a second period with a two-week treatment of placebo or CBD, respectively. There was no washout period between the two treatments. […] The dose could be reduced irreversibly to 400 mg/d in case of serious unwanted effects. […] The PANSS was applied at baseline and day 14 and 28. Dose applications, blood sampling, and assessment of PANSS followed the time schedule presented below. Additional treatment with 5.0 mg lorazepam per day during the whole study period was permitted.\nThe Positive and Negative Syndrome Scale (PANSS) is a psychopathological scale and was developed to assess the symptom severity in patients with schizophrenia. It was first described by Kay et al. in 1987 (Kay S R, Fiszbein A, Opler L A. “The positive and negative syndrome scale (PANSS) for schizophrenia”. Schizophrenia bulletin. 1987; 13(2):261-276.) and includes 30 questions which are a combination of 18 items of the BPRS and 12 items of the Psychopathology Rating Schedule ([…]) (see Leucht S, Kane J M, Kissling W, Hamann J, Etschel E, Engel R R. “What does the PANSS mean?” Schizophrenia research. 2005; 79(2-3):231-238.) All questions are rated on a 7-point scale from 1=absence of symptoms to 7=extremely distinct symptoms. Therefore, the PANSS total score (sum score of all 30 items) can range from 30 to 210. Here applies: the lower the PANSS score the better/healthier is the patient.\nThe positive scale contains delusion, disorganized thoughts, hallucination, excitement, grandiosity, suspiciousness/persecution, and animosity. Blunted affect, emotional withdrawal, poor rapport, passive/apathetic social withdrawal, difficulty in abstract thinking, stereotyped thinking, lack of spontaneity, and flow of conversation are part of the negative scale. […]",
  "data": [
    {"smiles": "C=C(C)[C@@H]1CCC(C)=C[C@H]1c1c(O)cc(CCCCC)cc1O", "note": "[CBD, cannabidiol]", "values": [
      {"measurement": "PANSS Positive Score", "setting": "Day 14, mean, SD 4.5, N 36", "result": 18.9},
      {"measurement": "PANSS Negative Score", "setting": "Day 14, mean, SD 5.6, N 36", "result": 19.0},
      {"measurement": "PANSS General Score", "setting": "Day 14, mean, SD 9.6, N 36", "result": 38.9},
      {"measurement": "PANSS Total Score", "setting": "Day 14, mean, SD 17.0, N 36 (CT1 17|PT 19), oral CBD capsules 800 mg/d (CT1) or 600 mg/d (PT)", "result": 76.9},
      {"measurement": "PANSS Positive Score", "setting": "Day 28, mean, SD 5.4, N 24", "result": 16.9},
      {"measurement": "PANSS Negative Score", "setting": "Day 28, mean, SD 6.2, N 24", "result": 16.1},
      {"measurement": "PANSS General Score", "setting": "Day 28, mean, SD 13.1, N 24", "result": 35.9},
      {"measurement": "PANSS Total Score", "setting": "Day 28, mean, SD 23.2, N 24 (CT1 14|PT 10)", "result": 68.9}
    ]}
  ]
}
